Experimental data published in patent publication US11117900B2 (Vertex Pharmaceuticals Incorporated, priority 2012, dated 2021).

system: HCT116 colorectal cancer cells; assay: Cisplatin sensitization assay (96 h MTS cell viability); type: cell-based; settings: Cisplatin sensitization value;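 also: compound concentration needed to lower the IC50 of Cisplatin alone by a set fold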
Summary of the method: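 The MTS viability read, after 1 h with reagent, followed 96 h of co-treatment at 37° C. in 5% CO2. Both compound and cisplatin were titrated 2-fold from a 10 μM top final concentration in a complete concentration matrix on HCT116 cells. Scores +++/++/+ reflect cisplatin sensitization value ranges.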

| Structure (SMILES) | Cisplatin Sensitization Assay |
| --- | --- |
| Nc1nn2cc(F)cnc2c1C(=O)Nc1cncc(F)c1N1CCC(C(=O)NCCN2CCC2)CC1 [I-G-42, 2-amino-N-(4-(4-((2-(azetidin-1-yl)ethyl)carbamoyl)piperidin-1-yl)-5-fluoropyridin-3-yl)-6-fluoropyrazolo[1,5-a]pyrimidine-3-carboxamide] | +++ (Compounds with a Cisplatin sensitization value of <0.02 μM are marked with “+++.”) |
| C[C@@H]1CN(C(=O)C2CCN(c3c(F)cncc3NC(=O)c3c(N)nn4cc(F)cnc34)CC2)CCN1 [I-G-45, (R)-2-amino-6-fluoro-N-(5-fluoro-4-(4-(3-methylpiperazine-1-carbonyl)piperidin-1-yl)pyridin-3-yl)pyrazolo[1,5-a]pyrimidine-3-carboxamide] | +++ (Compounds with a Cisplatin sensitization value of <0.02 μM are marked with “+++.”) |
| Nc1nn2cc(F)cnc2c1C(=O)Nc1cnccc1N1CCN2[C@@H](CCS2(=O)=O)C1 [I-N-247, (S)-2-amino-N-(4-(1,1-dioxidotetrahydro-2H-isothiazolo[2,3-a]pyrazin-5(3H)-yl)pyridin-3-yl)-6-fluoropyrazolo[1,5-a]pyrimidine-3-carboxamide] | +++ (Compounds with a Cisplatin sensitization value of <0.02 μM are marked with “+++.”) |
| N#CCc1cnc2c(C(=O)Nc3cnccc3OCCO)c(N)nn2c1 [I-O-33, 2-amino-6-(cyanomethyl)-N-(4-(2-hydroxyethoxy)pyridin-3-yl)pyrazolo[1,5-a]pyrimidine-3-carboxamide] | ++ (Compounds with a Cisplatin sensitization value >0.02 μM but <0.2 μM are marked with “++.”) |
| COCC1CN(c2ccncc2NC(=O)c2c(N)nn3cc(Cl)cnc23)CCN1C (centres unmarked) [I-N-47, 2-amino-6-chloro-N-(4-(3-(methoxymethyl)-4-methylpiperazin-1-yl)pyridin-3-yl)pyrazolo[1,5-a]pyrimidine-3-carboxamide] | ++ (Compounds with a Cisplatin sensitization value >0.02 μM but <0.2 μM are marked with “++.”) |
| Nc1nn2cc(F)cnc2c1C(=O)Nc1cncc(F)c1N1CCC(C(=O)N2CC3CNCC3C2)CC1 (centres unmarked) [I-G-51, 2-amino-6-fluoro-N-(5-fluoro-4-(4-(octahydropyrrolo[3,4-c]pyrrole-2-carbonyl)piperidin-1-yl)pyridin-3-yl)pyrazolo[1,5-a]pyrimidine-3-carboxamide] | +++ (Compounds with a Cisplatin sensitization value of <0.02 μM are marked with “+++.”) |
| N#CC1(C(=O)N2CCC(c3ccncc3NC(=O)c3c(N)nn4cc(F)cnc34)CC2)CC1 [I-C-71, 2-amino-N-(4-(1-(1-cyanocyclopropanecarbonyl)piperidin-4-yl)pyridin-3-yl)-6-fluoropyrazolo[1,5-a]pyrimidine-3-carboxamide] | +++ (Compounds with a Cisplatin sensitization value of <0.02 μM are marked with “+++.”) |
| Nc1nn2cc(F)cnc2c1C(=O)Nc1cncc(F)c1N1CCN(C(=O)C2CCOC2)CC1 (centres unmarked) [I-N-274, 2-amino-6-fluoro-N-(5-fluoro-4-(4-(tetrahydrofuran-3-carbonyl)piperazin-1-yl)pyridin-3-yl)pyrazolo[1,5-a]pyrimidine-3-carboxamide] | +++ (Compounds with a Cisplatin sensitization value of <0.02 μM are marked with “+++.”) |
| Nc1nn2cc(F)cnc2c1C(=O)Nc1cncc(Cl)c1N1CCC(C(=O)N2CCN3CCC2C3)CC1 (centres unmarked) [I-G-69, N-(4-(4-(1,4-diazabicyclo[3.2.1]octane-4-carbonyl)piperidin-1-yl)-5-chloropyridin-3-yl)-2-amino-6-fluoropyrazolo[1,5-a]pyrimidine-3-carboxamide] | +++ (Compounds with a Cisplatin sensitization value of <0.02 μM are marked with “+++.”) |
| Nc1nn2cc(F)cnc2c1C(=O)Nc1cnccc1N1CCN(S(=O)(=O)C2CC2)CC1 [I-N-176, 2-amino-N-(4-(4-(cyclopropylsulfonyl)piperazin-1-yl)pyridin-3-yl)-6-fluoropyrazolo[1,5-a]pyrimidine-3-carboxamide] | +++ (Compounds with a Cisplatin sensitization value of <0.02 μM are marked with “+++.”) |
| Nc1nn2cc(F)cnc2c1C(=O)Nc1cncc(F)c1N1CCC(C(=O)N2CC(N3CCCCC3)C2)CC1 [I-G-57, 2-amino-6-fluoro-N-(5-fluoro-4-(4-(3-(piperidin-1-yl)azetidine-1-carbonyl)piperidin-1-yl)pyridin-3-yl)pyrazolo[1,5-a]pyrimidine-3-carboxamide] | +++ (Compounds with a Cisplatin sensitization value of <0.02 μM are marked with “+++.”) |
| Nc1nn2cc(F)cnc2c1C(=O)Nc1cncc(F)c1N1CCC(C(=O)N2CCC2)CC1 [I-G-8, 2-amino-N-(4-(4-(azetidine-1-carbonyl)piperidin-1-yl)-5-fluoropyridin-3-yl)-6-fluoropyrazolo[1,5-a]pyrimidine-3-carboxamide] | +++ (Compounds with a Cisplatin sensitization value of <0.02 μM are marked with “+++.”) |
| Nc1nn2cc(F)cnc2c1C(=O)Nc1cnccc1N1CCN([C@@H]2CCOC2)CC1 [I-N-10, (R)-2-amino-6-fluoro-N-(4-(4-(tetrahydrofuran-3-yl)piperazin-1-yl)pyridin-3-yl)pyrazolo[1,5-a]pyrimidine-3-carboxamide] | ++ (Compounds with a Cisplatin sensitization value >0.02 μM but <0.2 μM are marked with “++.”) |
| CN1CCC(NC(=O)C2CCN(c3c(F)cncc3NC(=O)c3c(N)nn4cc(F)cnc34)CC2)C1 (centres unmarked) [I-G-24, 2-amino-6-fluoro-N-(5-fluoro-4-(4-((1-methylpyrrolidin-3-yl)carbamoyl)piperidin-1-yl)pyridin-3-yl)pyrazolo[1,5-a]pyrimidine-3-carboxamide] | +++ (Compounds with a Cisplatin sensitization value of <0.02 μM are marked with “+++.”) |
| CN1CC(C(=O)N2CCN(c3c(F)cncc3NC(=O)c3c(N)nn4cc(F)cnc34)CC2)C1 [I-N-194] | +++ (Compounds with a Cisplatin sensitization value of <0.02 μM are marked with “+++.”) |
| Nc1nn2cc(F)cnc2c1C(=O)Nc1cncc(F)c1N1CCC(C(=O)N2CCC(N3CCCCC3)CC2)CC1 [I-G-60, N-(4-(4-([1,4′-bipiperidine]-1′-carbonyl)piperidin-1-yl)-5-fluoropyridin-3-yl)-2-amino-6-fluoropyrazolo[1,5-a]pyrimidine-3-carboxamide] | +++ (Compounds with a Cisplatin sensitization value of <0.02 μM are marked with “+++.”) |
| Nc1nn2cc(F)cnc2c1C(=O)Nc1cnccc1-n1ccnc1 [I-N-7, N-(4-(1H-imidazol-1-yl)pyridin-3-yl)-2-amino-6-fluoropyrazolo[1,5-a]pyrimidine-3-carboxamide] | ++ (Compounds with a Cisplatin sensitization value >0.02 μM but <0.2 μM are marked with “++.”) |
| Nc1nn2cc(F)cnc2c1C(=O)Nc1cnccc1O[C@@H]1CN2CCC1CC2 [I-O-10, (S)-2-amino-6-fluoro-N-(4-(quinuclidin-3-yloxy)pyridin-3-yl)pyrazolo[1,5-a]pyrimidine-3-carboxamide] | +++ (Compounds with a Cisplatin sensitization value of <0.02 μM are marked with “+++.”) |
| Cc1cccnc1-c1ccncc1NC(=O)c1c(N)nn2cc(F)cnc12 [I-C-36, 2-amino-6-fluoro-N-(3-methyl-[2,4′-bipyridin]-3′-yl)pyrazolo[1,5-a]pyrimidine-3-carboxamide] | +++ (Compounds with a Cisplatin sensitization value of <0.02 μM are marked with “+++.”) |
| Nc1nn2cc(F)cnc2c1C(=O)Nc1cnccc1-c1ccncc1 [I-C-24, N-([4,4′-bipyridin]-3-yl)-2-amino-6-fluoropyrazolo[1,5-a]pyrimidine-3-carboxamide] | +++ (Compounds with a Cisplatin sensitization value of <0.02 μM are marked with “+++.”) |
| Nc1nn2cc(F)cnc2c1C(=O)Nc1cnccc1N1CCC(S(=O)(=O)N2CCC2)CC1 [I-N-271, 2-amino-N-(4-(4-(azetidin-1-ylsulfonyl)piperidin-1-yl)pyridin-3-yl)-6-fluoropyrazolo[1,5-a]pyrimidine-3-carboxamide] | +++ (Compounds with a Cisplatin sensitization value of <0.02 μM are marked with “+++.”) |
| CN1CC2(CCN(c3ccncc3NC(=O)c3c(N)nn4cc(F)cnc34)CC2)OC1=O [I-N-216, 2-amino-6-fluoro-N-(4-(3-methyl-2-oxo-1-oxa-3,8-diazaspiro[4.5]decan-8-yl)pyridin-3-yl)pyrazolo[1,5-a]pyrimidine-3-carboxamide] | +++ (Compounds with a Cisplatin sensitization value of <0.02 μM are marked with “+++.”) |
| Nc1nn2cc(F)cnc2c1C(=O)Nc1cnccc1-c1ccc(C(=O)N2CCN(C3COC3)CC2)cc1 [I-C-49, 2-amino-6-fluoro-N-(4-(4-(4-(oxetan-3-yl)piperazine-1-carbonyl)phenyl)pyridin-3-yl)pyrazolo[1,5-a]pyrimidine-3-carboxamide] | +++ (Compounds with a Cisplatin sensitization value of <0.02 μM are marked with “+++.”) |
| Nc1nn2cc(F)cnc2c1C(=O)Nc1cnccc1-c1cccnc1Cl [I-C-37, 2-amino-N-(2-chloro-[3,4′-bipyridin]-3′-yl)-6-fluoropyrazolo[1,5-a]pyrimidine-3-carboxamide] | +++ (Compounds with a Cisplatin sensitization value of <0.02 μM are marked with “+++.”) |
| Nc1nn2cc(F)cnc2c1C(=O)Nc1cncc(F)c1N1CCN(C(=O)C2CC2)CC1 [I-N-276, 2-amino-N-(4-(4-(cyclopropanecarbonyl)piperazin-1-yl)-5-fluoropyridin-3-yl)-6-fluoropyrazolo[1,5-a]pyrimidine-3-carboxamide] | +++ (Compounds with a Cisplatin sensitization value of <0.02 μM are marked with “+++.”) |
| Nc1nn2cc(Cl)cnc2c1C(=O)Nc1cnccc1N1CCN(C2COC2)CC1 [I-N-58, 2-amino-6-chloro-N-(4-(4-(oxetan-3-yl)piperazin-1-yl)pyridin-3-yl)pyrazolo[1,5-a]pyrimidine-3-carboxamide] | ++ (Compounds with a Cisplatin sensitization value >0.02 μM but <0.2 μM are marked with “++.”) |
